According to article PMC4356375, “Snapshots of ligand entry, malleable binding and induced helical movement in P-glycoprotein” (Acta Crystallographica Section D: Biological Crystallography, 2015):
pEC50, pIC50: −log10 of the molar value.

What was measured:
[1] = system: P-gp-over-expressing CR1R12, and parental control AuxB1, cells; assay: Cytotoxicity of the cyclopeptides to CR1R12 and parental AuxB1 cells (Fig. S3); type: cell-based, Chinese hamster
Method: Figure S1 NMR spectra of QZ-Ala, QZ-Leu and QZ-Phe. 13C (top) and 1H (bottom) spectra are […]
Figure S2 Structure based alignment. Two views of P-gp depicting Cα position shifts between the new (P-gp native at 3.4 Å, reported here) and previously published model (pdb code: 4KSB). Changes are depicted by color with red indicating the largest shift in Cα position (8.35 Å). Alignments and pairwise Cα RMSD calculations were calculated using the python module ‘ColorByRMSD’ within the PyMOL Molecular Graphics System (Schrödinger, LLC)
Figure S3 Cytotoxicity of the homotrimeric cyclopeptide compounds to P -gp-over-expressing CR1R12, and parental control AuxB1, cells using Calcein-AM transport assay. P-gp mediates mild […]
of this compound at high concentrations. The mean and SD of quadruplet experiments are shown; data were fit using the Hill equation. QZ-Ala, QZ-Val, QZ-Leu and QZ-Phe are drawn in green, blue, yellow and red curves, respectively. The concentrations are plotted in log scale.
(§1) Figure S4 Sensitization of CR1R12 cells to the anti-cancer drug colchicine by homotrimeric cyclopeptides. Relative to parental control AUXB1 cells, P-gp-overexpressing CR1R12 cells are ~200 times more resistant to the anticancer drug colchicine (gray lines in all panes). Their 50% growth […]
Presence of (a) QZ-Ala, green, (b) […]

[2] = Solubility remark (Fig. S3 legend); type: physicochemical; conditions: at high concentrations
P-gp [3] = target: T1, P-gp (Cricetulus griseus, UniProt P21448); assay: Calcein-AM transport assay in P-gp-overexpressing CR1R12 cells; type: cell-based, Chinese hamster; conditions: calcein-AM 0.25 µM, room temperature, read-out: IC50 inhibition of calcein-AM export
T1 construct: endogenous in cells; host or cells: Chinese hamster ovary CR1R12 cells (colchicine-selected; parental AUXB1)
T1 sequence (P21448 whole entry): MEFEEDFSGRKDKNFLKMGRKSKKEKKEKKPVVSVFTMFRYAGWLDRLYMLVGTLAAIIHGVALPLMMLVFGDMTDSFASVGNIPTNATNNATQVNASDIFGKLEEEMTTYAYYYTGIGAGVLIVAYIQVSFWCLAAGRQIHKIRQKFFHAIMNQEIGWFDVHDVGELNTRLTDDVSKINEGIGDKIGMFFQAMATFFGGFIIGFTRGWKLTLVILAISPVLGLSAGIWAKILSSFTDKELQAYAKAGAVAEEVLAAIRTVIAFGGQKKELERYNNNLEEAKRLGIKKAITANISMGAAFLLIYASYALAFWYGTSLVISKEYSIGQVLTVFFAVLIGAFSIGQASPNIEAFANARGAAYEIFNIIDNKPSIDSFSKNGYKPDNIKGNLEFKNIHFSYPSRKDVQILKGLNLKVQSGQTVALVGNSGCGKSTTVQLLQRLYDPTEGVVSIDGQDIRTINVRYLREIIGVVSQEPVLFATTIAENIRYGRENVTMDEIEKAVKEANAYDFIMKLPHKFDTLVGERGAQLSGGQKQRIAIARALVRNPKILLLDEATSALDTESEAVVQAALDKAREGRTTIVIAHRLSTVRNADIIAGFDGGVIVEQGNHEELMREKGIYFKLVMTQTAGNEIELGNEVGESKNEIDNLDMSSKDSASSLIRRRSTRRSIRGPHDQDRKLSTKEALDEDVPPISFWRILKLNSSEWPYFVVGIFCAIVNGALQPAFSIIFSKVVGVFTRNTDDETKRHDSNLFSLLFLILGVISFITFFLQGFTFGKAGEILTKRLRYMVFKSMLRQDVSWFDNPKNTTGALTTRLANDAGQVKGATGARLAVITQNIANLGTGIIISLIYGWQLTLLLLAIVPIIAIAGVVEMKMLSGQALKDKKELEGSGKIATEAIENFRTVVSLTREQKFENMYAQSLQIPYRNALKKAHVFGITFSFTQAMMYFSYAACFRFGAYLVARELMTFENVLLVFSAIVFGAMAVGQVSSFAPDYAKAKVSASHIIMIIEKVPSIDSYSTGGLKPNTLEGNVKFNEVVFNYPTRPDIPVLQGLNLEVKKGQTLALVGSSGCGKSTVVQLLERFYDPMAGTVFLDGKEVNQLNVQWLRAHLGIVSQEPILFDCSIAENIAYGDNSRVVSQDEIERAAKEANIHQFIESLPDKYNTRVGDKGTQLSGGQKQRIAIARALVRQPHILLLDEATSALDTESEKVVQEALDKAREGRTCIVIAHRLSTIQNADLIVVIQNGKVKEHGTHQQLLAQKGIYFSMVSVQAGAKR
Method: It has commonly been used in fluorescence-based transport assays for P-gp in whole-cell systems (Al-Shawi & Senior, 1993[▶]). Chinese hamster ovary CR1R12 cells were cultured in the presence of 5 µg ml^−1 colchicine to maintain P-gp overexpression. In general, ∼5 × 10^5 CR1R12 cells per well were pretreated with test compounds in serially increasing concentrations at room temperature for 15 min; calcein-AM (0.25 µM) was then added and incubated for an additional 15 min at room temperature while monitoring the fluorescence intensity (excitation at 485 nm, emission at 535 nm). 100% was the maximum fluorescence achieved by full inhibition of P-gp in CR1R12 cells. The means and standard deviations were obtained from quadruplet experiments.

CR1R12 cells = assay: Sensitization assay: growth of CR1R12 cells with colchicine (sulforhodamine B); type: cell-based, Chinese hamster
Method: (§2) CR1R12 cells were grown in the presence of increasing concentrations of colchicine for 3 d at given concentrations of test compounds. Cell densities were determined using the sulforhodamine B colorimetric assay (Vichai & Kirtikara, 2006[▶]). 100% is defined as the growth in the absence of colchicine. Parental AUXB1 cells were included as controls. […]
as §1
(§3) Presence of (a) QZ-Ala, green, (b)
(§4) QZ-Val, blue, and (d) QZ-Phe, red, in the growth media sensitized the CR1R12 cells to colchicine in a concentration-dependent manner with full reversal of P-gp mediated multidrug resistance seen at 2 […]
(§5) increasing concentrations of (c) QZ-Leu, yellow, also sensitized CR1R12 cells to colchicine, where […]
(§6) higher concentrations. Shown are representative data from three independent experiments. The concentrations are plotted in log scale.

AUXB1 cells = assay: Growth inhibition of parental control AUXB1 cells by colchicine; type: cell-based, Chinese hamster; conditions: Cricetulus griseus, read-out: 50% growth inhibition (GI50)
Method: as §2, §1, §3, §4, §5, §6

P-gp [4] = target: T2, P-gp (Mus musculus, UniProt P21447); assay: Stimulation of basal ATPase activity of purified P-gp; type: biochemical; conditions: 310 K
T2 construct: inferred from the Ni-NTA purification; made in house; host or cells: Pichia pastoris
T2 sequence (P21447 whole entry): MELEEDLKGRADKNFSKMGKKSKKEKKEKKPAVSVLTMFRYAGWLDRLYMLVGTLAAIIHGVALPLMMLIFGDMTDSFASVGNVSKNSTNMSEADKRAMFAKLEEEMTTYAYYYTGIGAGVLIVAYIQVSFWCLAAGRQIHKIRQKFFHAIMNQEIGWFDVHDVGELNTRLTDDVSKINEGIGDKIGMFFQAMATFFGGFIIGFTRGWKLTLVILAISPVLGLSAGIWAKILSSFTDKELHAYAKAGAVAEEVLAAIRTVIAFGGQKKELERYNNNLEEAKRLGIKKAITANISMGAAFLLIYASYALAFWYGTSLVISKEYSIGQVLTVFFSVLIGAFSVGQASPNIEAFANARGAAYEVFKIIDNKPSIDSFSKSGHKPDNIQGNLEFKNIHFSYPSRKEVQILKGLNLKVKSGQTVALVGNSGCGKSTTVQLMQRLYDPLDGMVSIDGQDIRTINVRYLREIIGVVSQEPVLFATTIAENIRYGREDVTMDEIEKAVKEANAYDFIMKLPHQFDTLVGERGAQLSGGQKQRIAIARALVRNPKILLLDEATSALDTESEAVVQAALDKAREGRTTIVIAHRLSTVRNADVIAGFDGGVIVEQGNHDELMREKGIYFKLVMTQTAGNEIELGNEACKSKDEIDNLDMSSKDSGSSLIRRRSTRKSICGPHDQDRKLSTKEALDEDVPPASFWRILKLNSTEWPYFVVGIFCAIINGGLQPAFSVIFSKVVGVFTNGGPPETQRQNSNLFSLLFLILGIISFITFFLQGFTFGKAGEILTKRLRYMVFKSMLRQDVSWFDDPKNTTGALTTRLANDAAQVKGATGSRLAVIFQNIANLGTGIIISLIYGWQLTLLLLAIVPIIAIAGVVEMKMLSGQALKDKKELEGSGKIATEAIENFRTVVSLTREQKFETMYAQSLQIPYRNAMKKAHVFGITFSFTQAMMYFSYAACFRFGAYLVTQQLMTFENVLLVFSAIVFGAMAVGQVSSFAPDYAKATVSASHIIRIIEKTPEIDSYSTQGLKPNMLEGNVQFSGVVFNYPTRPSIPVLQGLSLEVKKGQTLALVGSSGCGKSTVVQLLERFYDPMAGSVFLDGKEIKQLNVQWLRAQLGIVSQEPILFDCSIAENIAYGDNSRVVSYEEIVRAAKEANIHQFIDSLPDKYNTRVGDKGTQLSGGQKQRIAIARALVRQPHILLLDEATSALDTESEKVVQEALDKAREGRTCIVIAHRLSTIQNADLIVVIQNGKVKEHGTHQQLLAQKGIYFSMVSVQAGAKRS
Method: The ATPase activity of P-gp was measured at 310 K using the ATP-regenerating system described by Vogel & Steinhart (1976[▶]) as modified by Urbatsch et al. (1995[▶]). Briefly, 1 µg P-gp was added to 100 µl 50 mM Tris–HCl pH 7.5 buffer containing 10 mM ATP, 12 mM MgCl2, 6 mM phosphoenolpyruvate, 1 mM NADH, 10 units of lactate dehydrogenase, 10 units of pyruvate kinase and test compounds over a range of concentrations. ATP hydrolysis was determined by the decrease in NADH absorbance at OD340 using a Filtermax F5 Multiplate Spectrophotometer. The ATPase activity was calculated using the equation ΔOD/(∊ × [protein] × time), where ΔOD is the change in absorbance and ∊ is the extinction coefficient of NADH. The concentration of purified P-gp was estimated by comparing the SDS–PAGE intensity of Coomassie-stained protein bands with known amounts of BSA. EC50 values were calculated using GraphPad Prism (GraphPad Software, San Diego, California, USA) using nonlinear regression (curve fit) from the entire concentration range.
Gene-optimized mouse P-gp (ABCB1a; GenBank JF834158) was expressed in Pichia pastoris in 10 l cultures in a BioFlo 415 bioreactor (New Brunswick Scientific) and was induced by the slow addition of methanol (3.6 ml per hour per litre of culture volume) overnight as described previously (Aller et al., 2009[▶]; Bai et al., 2011[▶]). […]

For `O=C1N[C@@H](Cc2ccccc2)c2nc(c[se]2)C(=O)N[C@@H](Cc2ccccc2)c2nc(c[se]2)C(=O)N[C@@H](Cc2ccccc2)c2nc1c[se]2` [QZ-Phe], the “Full growth inhibition (in words)” value [1] was “not observed”, the “Solubility (in words)” value [2] was “limited solubility” and the pIC50 (P-gp [3]) was 4.62.
For `COc1cc2c(c(OC)c1OC)-c1ccc(OC)c(=O)cc1[C@@H](NC(C)=O)CC2` [colchicine], the “Resistance of CR1R12 cells relative to AUXB1 cells” value (CR1R12 cells; CR1R12 vs parental AUXB1) was ~ 200 times, the GI50 (CR1R12 cells; Cricetulus griseus, CR1R12 cells, no cyclopeptide, read-out: 50% growth inhibition (GI50)) was 27000 nM and the GI50 (AUXB1 cells) was 140 nM.
Compound `CC(C)[C@@H]1NC(=O)c2c[se]c(n2)[C@H](C(C)C)NC(=O)c2c[se]c(n2)[C@H](C(C)C)NC(=O)c2c[se]c1n2` [QZ-Val] has a pIC50 (P-gp [3]) of 5.77.
Work on `C[C@@H]1NC(=O)c2c[se]c(n2)[C@H](C)NC(=O)c2c[se]c(n2)[C@H](C)NC(=O)c2c[se]c1n2` [QZ-Ala] yielded a pEC50 (P-gp [4]) of 6.04 and a pIC50 (P-gp [3]) of 6.85.
In the case of `CC(C)C[C@@H]1NC(=O)c2c[se]c(n2)[C@H](CC(C)C)NC(=O)c2c[se]c(n2)[C@H](CC(C)C)NC(=O)c2c[se]c1n2` [QZ-Leu], the “Cytotoxicity (in words)” value (CR1R12 cells; CR1R12 cells, higher concentrations) was “became cytotoxic” and the pIC50 (P-gp [3]) was 5.27.
